Drawing on ChEMBL document CHEMBL1667746, “Synthesis, antimicrobial activity and structure-activity relationship study of N,N-dibenzyl-cyclohexane-1,2-diamine derivatives” (Eur J Med Chem, 2011), this text covers MIC, hemolysis and Activity for 22 compounds.

Each structure is given as a SMILES string. Values after ≈ are worked out from the molar mass of the structure shown. Active and inactive are the calls of the source. No cut-off for these calls is given here.

Data set [1] deals with Escherichia coli. Briefly: Antibacterial activity against Escherichia coli after 24 hrs micro dilution assay. In kind it is functional.
Data set [2] relates to Pseudomonas aeruginosa. Nature of the data set: Antibacterial activity against Pseudomonas aeruginosa after 24 hrs micro dilution assay. In kind it is functional.
Data set [3] deals with Staphylococcus aureus. Nature of the data set: Antibacterial activity against Staphylococcus aureus after 24 hrs micro dilution assay. It is filed as functional.
Data set [4] relates to Staphylococcus epidermidis. Nature of the data set: Antibacterial activity against Staphylococcus epidermidis after 24 hrs micro dilution assay. It is filed as functional.
For data set [5], the system named is Candida albicans. Briefly: Antifungal activity against Candida albicans MTCC 3017 after 24 hrs micro dilution assay. In kind it is functional.
Data set [6] concerns Nakaseomyces glabratus. Nature of the data set: Antifungal activity against Candida glabrata MTCC 3019 after 24 hrs micro dilution assay. In kind it is functional.
Data set [7] concerns Geotrichum candidum. Briefly: Antifungal activity against Geotrichum candidum NCIM 980 after 24 hrs micro dilution assay. It is filed as functional.
Data set [8] is described as follows: Toxicity in human RBC assessed as hemolysis at 1024 ug/ml. It is filed as cell-based, Erythrocyte. The conditions noted are these: for hemolysis at 1024 ug/ml: red blood cells, read-out: Activity; for Activity: erythrocyte.
Where [9] appears, read: Escherichia coli, 24 h, read-out: MIC.
[10] abbreviates: Pseudomonas aeruginosa, 24 h, read-out: MIC.
The mark [11] stands for this setting: Staphylococcus aureus, 24 h, read-out: MIC.
Where [12] appears, read: Staphylococcus epidermidis, 24 h, read-out: MIC.

On to `Cc1cccc(CNC2CCCCC2NCc2cccc(C)c2)c1.Cl` (centres undefined), for which the MIC in data set [1] (setting [9]) amounted to 0.125 µg/mL; in data set [2] (setting [10]), 0.065 µg/mL; in data set [3] (setting [11]), 0.032 µg/mL; in data set [4] (setting [12]), 0.25 µg/mL; in data set [7] (NCIM 980, 24 h), 0.25 µg/mL. The MIC result in data set [5] and in data set [6] was “inactive” throughout. Besides, the hemolysis at 1024 ug/ml in data set [8] is 4.78%.

As for `CN(C)[C@@H]1C(O)=C(C(N)=O)C(=O)[C@@]2(O)C(O)=C3C(=O)c4c(O)cccc4[C@@](C)(O)[C@H]3C[C@@H]12` [TETRACYCLINE], the MIC in data set [1] (setting [9]) came to 0.001 µg/mL (≈ 0.00225 µM); in data set [3] (setting [11]), 0.001 µg/mL (≈ 0.00225 µM); in data set [4] (setting [12]) it was 0.002 µg/mL (≈ 0.0045 µM).

As for `Brc1ccccc1CNC1CCCCC1NCc1ccccc1Br.Cl` (centres undefined), the MIC result in data set [1], in data set [2], in data set [3] and in data set [4] was “inactive” throughout. In addition, in data set [8], the Activity entry is reported as “Non-toxic”.

`Cl.FC(F)(F)c1ccc(C(F)(F)F)c(CNC2CCCCC2NCc2cc(C(F)(F)F)ccc2C(F)(F)F)c1` (centres undefined): the MIC result in data set [1], in data set [2], in data set [3] and in data set [4] was “inactive” in each case. Moreover, the Activity result in data set [8] is recorded as “Non-toxic”.

Consider `Cl.Clc1ccc(CNC2CCCCC2NCc2ccc(Cl)cc2)cc1` (centres undefined), for which the MIC stood at 0.008 µg/mL in data set [1] (setting [9]); 0.008 µg/mL in data set [2] (setting [10]); 0.008 µg/mL in data set [3] (setting [11]); 0.008 µg/mL in data set [4] (setting [12]); 0.125 µg/mL in data set [5] (MTCC 3017, 24 h); 0.125 µg/mL in data set [6] (MTCC 3019, 24 h). The compound further showed an MIC in data set [7] (NCIM 980, 24 h) of 0.032 µg/mL. Further, in data set [8], the Activity entry was “Non-toxic”.

Consider `C[C@@H]1[C@H](O)[C@@H](C)/C=C/C=C/C=C/C=C/C=C/C=C/C=C/[C@H](O[C@@H]2O[C@H](C)[C@@H](O)[C@H](N)[C@@H]2O)C[C@@H]2O[C@](O)(C[C@@H](O)C[C@@H](O)[C@H](O)CC[C@@H](O)C[C@@H](O)CC(=O)O[C@H]1C)C[C@H](O)[C@H]2C(=O)O` [AMPHOTERICIN B], for which the MIC turned out to be 0.3 µg/mL (≈ 0.325 µM) in data set [5] (MTCC 3017, 24 h); 50 µg/mL (≈ 54.1 µM) in data set [6] (MTCC 3019, 24 h); 6.25 µg/mL (≈ 6.76 µM) in data set [7] (NCIM 980, 24 h).

In the case of `Cl.Clc1cccc(CN[C@H]2CCCC[C@@H]2NCc2cccc(Cl)c2)c1` (racemic), the MIC in data set [1] (setting [9]) is 0.032 µg/mL; in data set [2] (setting [10]), 0.065 µg/mL; in data set [4] (setting [12]), 0.032 µg/mL; in data set [5] (MTCC 3017, 24 h), 0.125 µg/mL; in data set [7] (NCIM 980, 24 h), 0.032 µg/mL. The MIC entry in data set [3] and in data set [6] was “inactive” throughout.

Take `Cl.O=[N+]([O-])c1ccc(CNC2CCCCC2NCc2ccc([N+](=O)[O-])cc2)cc1` (centres undefined): the MIC result in data set [1], in data set [3], in data set [4], in data set [5] and in data set [6] was “inactive” throughout. Besides, the MIC came to 0.125 µg/mL in data set [2] (setting [10]) and 0.5 µg/mL in data set [7] (NCIM 980, 24 h). The Activity result in data set [8] is on record as “Non-toxic”.

Turning to `Cl.O=[N+]([O-])c1ccccc1CNC1CCCCC1NCc1ccccc1[N+](=O)[O-]` (centres undefined), the MIC entry in data set [1], in data set [2], in data set [3] and in data set [4] was “inactive” throughout. Besides, in data set [8], the Activity result is reported as “Non-toxic”.

Regarding `Brc1cccc(CN[C@H]2CCCC[C@@H]2NCc2cccc(Br)c2)c1.Cl`, the MIC in data set [1] (setting [9]) came out at 0.032 µg/mL; in data set [2], 0.008 µg/mL; in data set [3] (setting [11]), 0.008 µg/mL; in data set [4] (setting [12]) it was 0.032 µg/mL; in data set [5] (MTCC 3017, 24 h), 0.125 µg/mL; in data set [6] (MTCC 3019, 24 h) it was 0.065 µg/mL. This compound had an MIC in data set [7] (NCIM 980, 24 h) of 0.065 µg/mL. For the same compound, in data set [8], the Activity result is given as “Non-toxic”.

Turning to `Cl.FC(F)(F)c1cccc(CNC2CCCCC2NCc2cccc(C(F)(F)F)c2)c1` (centres undefined), the minimum inhibitory concentration (MIC) in data set [1] (setting [9]) was 0.065 µg/mL; in data set [2] (setting [10]), 0.25 µg/mL; in data set [3] (setting [11]), 0.016 µg/mL; in data set [4] (setting [12]), 0.032 µg/mL; in data set [5] (MTCC 3017, 24 h), 0.125 µg/mL; in data set [6] (MTCC 3019, 24 h), 0.25 µg/mL. In data set [7] (NCIM 980, 24 h), this compound yielded an MIC of 0.125 µg/mL. For the same compound, the Activity entry in data set [8] is recorded as “Non-toxic”.

With `CC(C)c1ccc(CNC2CCCCC2NCc2ccc(C(C)C)cc2)cc1.Cl` (centres undefined), the MIC is 0.004 µg/mL in data set [1] (setting [9]); 0.0005 µg/mL in data set [2] (setting [10]); 0.008 µg/mL in data set [3] (setting [11]); 0.008 µg/mL in data set [4] (setting [12]); 0.008 µg/mL in data set [5] (MTCC 3017, 24 h); 0.016 µg/mL in data set [6] (MTCC 3019, 24 h). Moreover, the MIC entry in data set [7] is “inactive”. Moreover, the hemolysis at 1024 ug/ml in data set [8] was 81.8%.

Take `Cc1ccc(CNC2CCCCC2NCc2ccc(C)cc2)cc1.Cl` (centres undefined): the MIC turned out to be 0.25 µg/mL in data set [1] (setting [9]); 0.125 µg/mL in data set [2] (setting [10]); 0.125 µg/mL in data set [3] (setting [11]); 0.25 µg/mL in data set [4] (setting [12]); 0.25 µg/mL in data set [7] (NCIM 980, 24 h). For the same compound, the MIC entry in data set [5] and in data set [6] was “inactive” in each case. The hemolysis at 1024 ug/ml in data set [8] turned out to be 19.2%.

On to `c1ccc(CNC2CCCCC2NCc2ccccc2)cc1` (centres undefined), for which the MIC entry in data set [1], in data set [2], in data set [3] and in data set [4] was “inactive” throughout.

`Cl.FC(F)(F)c1ccccc1CNC1CCCCC1NCc1ccccc1C(F)(F)F` (centres undefined): the MIC in data set [1] (setting [9]) amounted to 0.25 µg/mL; in data set [2] (setting [10]), 0.032 µg/mL; in data set [3] (setting [11]) it was 0.065 µg/mL; in data set [4] (setting [12]) it was 0.065 µg/mL; in data set [5] (MTCC 3017, 24 h), 0.5 µg/mL; in data set [7] (NCIM 980, 24 h), 0.5 µg/mL. The MIC entry in data set [6] was “inactive”. Besides, the Activity entry in data set [8] is listed as “Non-toxic”.

For the compound `Clc1ccccc1CNC1CCCCC1NCc1ccccc1Cl` (centres undefined), the MIC result in data set [1], in data set [2], in data set [3] and in data set [4] was “inactive” each time. In addition, the hemolysis at 1024 ug/ml in data set [8] was found to be 9.83%.

On to `Brc1cccc(CN[C@H]2CCCC[C@@H]2NCc2cccc(Br)c2)c1.Cl` (racemic), for which the MIC in data set [1] is 0.016 µg/mL; in data set [2], 0.032 µg/mL; in data set [3] it was 0.008 µg/mL; in data set [4] it was 0.032 µg/mL.

Turning to `Cl.Clc1ccc(CNC2CCCCC2NCc2ccc(Cl)cc2Cl)c(Cl)c1` (racemic), the MIC in data set [1] (setting [9]) came out at 0.032 µg/mL; in data set [2] (setting [10]) it was 0.016 µg/mL; in data set [3] (setting [11]) it was 0.016 µg/mL; in data set [4] (setting [12]) it was 0.032 µg/mL.

Consider `Cl.FC(F)(F)c1ccc(CNC2CCCCC2NCc2ccc(C(F)(F)F)cc2C(F)(F)F)c(C(F)(F)F)c1` (centres undefined), for which the MIC result in data set [1], in data set [2], in data set [3] and in data set [4] was “inactive” in each case. For the same compound, the Activity entry in data set [8] was “Non-toxic”.

`Cl.O=[N+]([O-])c1cccc(CNC2CCCCC2NCc2cccc([N+](=O)[O-])c2)c1` (centres undefined): the MIC amounted to 0.5 µg/mL in data set [1] (setting [9]), 0.25 µg/mL in data set [2] (setting [10]), 0.5 µg/mL in data set [3] (setting [11]) and 1 µg/mL in data set [4] (setting [12]). Besides, the Activity result in data set [8] is recorded as “Non-toxic”.

As for `COc1ccc(CNC2CCCCC2NCc2ccc(OC)cc2)cc1.Cl` (centres undefined), the MIC result in data set [1], in data set [2], in data set [3] and in data set [4] was “inactive” in each case. Besides, in data set [8], the Activity entry was “Non-toxic”.

For `Cl.Clc1ccc(CN[C@H]2CCCC[C@@H]2NCc2ccc(Cl)cc2)cc1`, the MIC in data set [1] (setting [9]), in data set [2] (setting [10]), in data set [3] (setting [11]) and in data set [4] (setting [12]) was 0.032 µg/mL each time. Besides, the hemolysis at 1024 ug/ml in data set [8] is 4.8%.
